Marks after values point to notes of the source that are not given here.
Assays:
SHSY5Y cells [1] = test: H2O2 production (Amplex Red); format: cell-based, Human
Experimental: Mitochondrial function assays. Hydrogen peroxide production. Using an Amplex® Red H2O2 Assay Kit (Molecular Probes, Eugene, Oreg.), the inventors measured the production of H2O2 in independent experiments (n=4) of SHSY5Y neurons treated 1) with and 2) without DDQ, DDQ treated and then incubated with Aβ, as described in Manczak et al..

SHSY5Y cells [2] = test: Cytochrome oxidase activity; format: cell-based, Human
Experimental: Cytochrome oxidase activity. Cytochrome oxidase activity was measured in the mitochondria isolated from SHSY5Y cells of control and experimental treatments (n=4), as described in Manczak et al.^33. Enzyme activity was assayed spectrophotometrically using a Sigma Kit (Sigma-Aldrich) following manufacturer's instructions.

[3] = system: Human Neuroblastoma (SHSY5Y) cells; test: mRNA levels by Sybr-Green real-time RT-PCR; format: cell-based
Experimental: mRNA levels of mitochondrial dynamics, mitochondrial biogenesis and synaptic genes. Using the reagent TriZol (Invitrogen), the inventors isolated total RNA from all DDQ-treated and untreated cells. mRNA levels of mitochondrial dynamic (Drp1, Fis1, Mfn1 and Mfn2), mitochondrial biogenesis genes (PGC1α, Nrf1, Nrf2 and TFAM) and synaptic genes (PSD95, synaptophysin, synapsin 1, synapsin 2, synaptobrevin 1, synaptobrevin 2, synaptopodin, and GAP43) were measured by using Sybr-Green chemistry-based quantitative real time RT-PCR.
FIG. 3 illustrates the experimental strategy of the cell culture work and including treatments. The cells were grown in a medium (1:1 DMEM and F12, 10% FBS, lx penicillin, and streptomycin) at 37° C. in a humified incubator with a 5% CO2 environment. After seeding were allowed to grow for 24-48 hrs or until 80% confluence in six-well plates and used for experiments. The inventors used five different groups of cells—(1) untreated SHSY5Y cells; (2) SHSY5Y cells treated with DDQ (250 nM final concentration) for 24 hrs; (3) SHSY5Y cells incubated with Aβ peptide 1-42 (20 uM final concentration) for 6 hrs; (4) SHSY5Y cells treated Aβ for 6 hrs+DDQ for 24 hrs and (5) SHSY5Y cells treated DDQ for 24 hrs and Aβ for 6 hrs. Half a million SHSY5Y cells were suspended per well into six-well plates. The inventors used Aβ peptide 1-42 and DDQ 250 nM in the experiments. After treatments, the inventors harvested cells, conducted experiments to measure the levels mRNA using Sybr-Green based real-time RT-PCR, proteins using immunoblotting and immunofluorescence analysis and cell viability using MTT assay. The inventors counted the number of mitochondria by electron microscopy.
Quantification of mitochondrial dynamics, biogenesis and synaptic genes expression using real-time RT-PCR. Using the reagent TriZol (Invitrogen), the inventors isolated total RNA from control and experimental groups (FIG. 3). Using primer express Software (Applied Biosystems), the inventors designed the oligonucleotide primers for the housekeeping genes β-actin, mitochondrial structural genes; fission (Drp1 and Fis1); fusion genes (MFN1, MFN2); mitochondrial biogenesis genes PGC1a, Nrf1, Nrf2 and TFAM; and synaptic genes (PSD95, synaptophysin, synapsin 1, synapsin 2, synaptobrevin 1, synaptobrevin 2, synaptopodin, and GAP43). Using SYBR-Green chemistry-based quantitative real-time RT-PCR, the inventors measured mRNA expression of the genes mentioned above as described by Manczak et al..

[4] = Aβ + DDQ (Aβ1-42 20 μM 6 hrs, then DDQ 24 hrs) vs untreated cells
[5] = DDQ 250 nM 24 hrs vs untreated cells
[6] = DDQ + Aβ (DDQ 24 hrs, then Aβ1-42 6 hrs) vs untreated cells
[7] = Aβ + DDQ (Aβ1-42 6 hrs, then DDQ 24 hrs) vs Aβ treated cells
[8] = DDQ + Aβ (DDQ 24 hrs, then Aβ1-42 6 hrs) vs Aβ treated cells

CCOP(=O)(OCC)C(NCCc1ccc(O)c(O)c1)c1ccnc2ccccc12 (centres unmarked) [DDQ, diethyl(3,4-dihydroxyphenethylamine)(quinolin-4-yl)methylphosphonate]
H2O2 levels (SHSY5Y cells [1]; [4]): Significantly increased levels | H2O2 levels (SHSY5Y cells [1]; Aβ + DDQ (Aβ1-42 6 hrs, then DDQ 24 hrs) vs cells incubated with Aβ): significantly reduced | H2O2 levels (SHSY5Y cells [1]; [5]): significantly decreased levels | H2O2 levels (SHSY5Y cells [1]; DDQ + Aβ (DDQ 24 hrs, then Aβ1-42 6 hrs) vs cells incubated with Aβ): significantly reduced | H2O2 levels (SHSY5Y cells [1]; [6]): Significantly increased levels | cytochrome oxidase activity (SHSY5Y cells [2]; [4]): unchanged | cytochrome oxidase activity (SHSY5Y cells [2]; Aβ + DDQ (Aβ1-42 6 hrs, then DDQ 24 hrs) vs Aβ incubated cells): increased | cytochrome oxidase activity (SHSY5Y cells [2]; [5]): significantly increased levels | cytochrome oxidase activity (SHSY5Y cells [2]; DDQ + Aβ (DDQ 24 hrs, then Aβ1-42 6 hrs) vs Aβ incubated cells): increased | cytochrome oxidase activity (SHSY5Y cells [2]; [6]): unchanged | Drp1 mRNA fold changes [3, 4]: 1.9* fold | Fis1 mRNA fold changes [3, 4]: −1.2 fold | GAP43 mRNA fold changes [3, 4]: 1.1 fold | Mfn1 mRNA fold changes [3, 4]: 1.4 fold | Mfn2 mRNA fold changes [3, 4]: 1.3 fold | Nrf1 mRNA fold changes [3, 4]: −1.7* fold | Nrf2 mRNA fold changes [3, 4]: −1.3 fold | PGC1a mRNA fold changes [3, 4]: −1.8* fold | PSD95 mRNA fold changes [3, 4]: −1.4* fold | Synapsin1 mRNA fold changes [3, 4]: 1.1 fold | Synapsin2 mRNA fold changes [3, 4]: 1.1 fold | Synaptobrevin1 mRNA fold changes [3, 4]: −1.1 fold | Synaptobrevin2 mRNA fold changes [3, 4]: 1.0 fold | Synaptophysin mRNA fold changes [3, 4]: −2.4* fold | Synaptopodin mRNA fold changes [3, 4]: −1.1 fold | TFAM mRNA fold changes [3, 4]: −2.0* fold | Drp1 mRNA fold changes [3, 7]: −1.7* fold | Fis1 mRNA fold changes [3, 7]: −2.0* fold | GAP43 mRNA fold changes [3, 7]: 1.7* fold | Mfn1 mRNA fold changes [3, 7]: 3.3** fold | Mfn2 mRNA fold changes [3, 7]: 3.4** fold | Nrf1 mRNA fold changes [3, 7]: 2.6 fold | Nrf2 mRNA fold changes [3, 7]: 2.1 fold | PGC1a mRNA fold changes [3, 7]: 2.5 fold | PSD95 mRNA fold changes [3, 7]: 1.8* fold | Synapsin1 mRNA fold changes [3, 7]: 2.1* fold | Synapsin2 mRNA fold changes [3, 7]: 2.4* fold | Synaptobrevin1 mRNA fold changes [3, 7]: 2.0* fold | Synaptobrevin2 mRNA fold changes [3, 7]: 2.1* fold | Synaptophysin mRNA fold changes [3, 7]: 1.6* fold | Synaptopodin mRNA fold changes [3, 7]: 2.0* fold | TFAM mRNA fold changes [3, 7]: 2.3 fold | Drp1 mRNA fold changes [3, 5]: −2.2* fold | Drp1 mRNA levels, fold decrease [3, 5]: 2.2 fold | Fis1 mRNA fold changes [3, 5]: −4.4*** fold | Fis1 mRNA levels, fold decrease [3, 5]: 4.4 fold | GAP43 mRNA fold changes [3, 5]: 1.2 fold | Mfn1 mRNA fold changes [3, 5]: 1.7 fold | Mfn2 mRNA fold changes [3, 5]: 2.3 fold | Nrf1 mRNA fold changes [3, 5]: 1.9 fold | Nrf2 mRNA fold changes [3, 5]: 2.7 fold | PGC1a mRNA fold changes [3, 5]: 1.5 fold | PSD95 mRNA fold changes [3, 5]: 1.4 fold | Synapsin1 mRNA fold changes [3, 5]: 1.0 fold | Synapsin2 mRNA fold changes [3, 5]: 1.7 fold | Synaptobrevin1 mRNA fold changes [3, 5]: 1.0 fold | Synaptobrevin2 mRNA fold changes [3, 5]: 1.3 fold | Synaptophysin mRNA fold changes [3, 5]: 1.4 fold | Synaptopodin mRNA fold changes [3, 5]: 1.0 fold | TFAM mRNA fold changes [3, 5]: 1.7 fold | Drp1 mRNA fold changes [3, 8]: −4.6*** fold | Fis1 mRNA fold changes [3, 8]: −2.5* fold | GAP43 mRNA fold changes [3, 8]: 1.7* fold | Mfn1 mRNA fold changes [3, 8]: 2.9** fold | Mfn2 mRNA fold changes [3, 8]: 2.9** fold | Nrf1 mRNA fold changes [3, 8]: 4.9 fold | Nrf2 mRNA fold changes [3, 8]: 2.6 fold | PGC1a mRNA fold changes [3, 8]: 3.9 fold | PSD95 mRNA fold changes [3, 8]: 2.1* fold | Synapsin1 mRNA fold changes [3, 8]: 2.5* fold | Synapsin2 mRNA fold changes [3, 8]: 2.9** fold | Synaptobrevin1 mRNA fold changes [3, 8]: 1.7* fold | Synaptobrevin2 mRNA fold changes [3, 8]: 2.3* fold | Synaptophysin mRNA fold changes [3, 8]: 2.4* fold | Synaptopodin mRNA fold changes [3, 8]: 2.1* fold | TFAM mRNA fold changes [3, 8]: 3.2 fold | Drp1 mRNA fold changes [3, 6]: −2.1* fold | Fis1 mRNA fold changes [3, 6]: −1.3 fold | GAP43 mRNA fold changes [3, 6]: 1.1 fold | Mfn1 mRNA fold changes [3, 6]: 1.2 fold | Mfn2 mRNA fold changes [3, 6]: 1.1 fold | Nrf1 mRNA fold changes [3, 6]: 1.1 fold | Nrf2 mRNA fold changes [3, 6]: −1.1 fold | PGC1a mRNA fold changes [3, 6]: −1.1 fold | PSD95 mRNA fold changes [3, 6]: −1.2 fold | Synapsin1 mRNA fold changes [3, 6]: 1.3 fold | Synapsin2 mRNA fold changes [3, 6]: 1.8* fold | Synaptobrevin1 mRNA fold changes [3, 6]: −1.4 fold | Synaptobrevin2 mRNA fold changes [3, 6]: 1.0 fold | Synaptophysin mRNA fold changes [3, 6]: −1.6* fold | Synaptopodin mRNA fold changes [3, 6]: −1.1 fold | TFAM mRNA fold changes [3, 6]: −1.5* fold

From patent publication US12208108B2, “Drug targets of delayed aging and human brain diseases” (Texas Tech University System, priority 2016, dated 2025)
